These results are taken from patent US12459932B2, “KIF18A inhibitors” (AMGEN INC., priority 2018, dated 2025).

T1 sequence (Q8NI77 1-467): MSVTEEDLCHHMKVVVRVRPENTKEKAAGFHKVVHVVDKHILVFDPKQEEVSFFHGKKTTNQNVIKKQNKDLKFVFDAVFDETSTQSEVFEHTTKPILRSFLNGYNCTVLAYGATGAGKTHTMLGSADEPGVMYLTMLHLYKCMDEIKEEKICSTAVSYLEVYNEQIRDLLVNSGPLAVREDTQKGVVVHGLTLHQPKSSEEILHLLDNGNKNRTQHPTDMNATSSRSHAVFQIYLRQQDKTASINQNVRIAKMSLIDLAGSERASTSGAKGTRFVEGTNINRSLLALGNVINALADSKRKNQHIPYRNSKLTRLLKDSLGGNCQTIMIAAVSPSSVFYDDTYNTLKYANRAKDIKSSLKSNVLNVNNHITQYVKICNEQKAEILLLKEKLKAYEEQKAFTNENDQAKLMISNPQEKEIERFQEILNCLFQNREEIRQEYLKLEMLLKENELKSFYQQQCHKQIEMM
T1 sequence (P02550 whole entry partner): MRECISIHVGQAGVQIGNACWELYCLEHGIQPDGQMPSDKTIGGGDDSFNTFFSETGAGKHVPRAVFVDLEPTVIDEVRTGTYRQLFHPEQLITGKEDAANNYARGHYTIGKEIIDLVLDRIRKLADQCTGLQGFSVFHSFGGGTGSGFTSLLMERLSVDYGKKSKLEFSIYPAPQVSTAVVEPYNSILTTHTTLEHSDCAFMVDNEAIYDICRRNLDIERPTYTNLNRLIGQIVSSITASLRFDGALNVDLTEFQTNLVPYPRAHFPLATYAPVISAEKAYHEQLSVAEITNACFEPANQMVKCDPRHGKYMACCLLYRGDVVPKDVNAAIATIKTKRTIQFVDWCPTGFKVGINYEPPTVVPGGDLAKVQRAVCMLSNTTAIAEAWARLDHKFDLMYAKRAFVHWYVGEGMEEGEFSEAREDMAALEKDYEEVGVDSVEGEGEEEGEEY
T1 sequence (P02554 whole entry partner): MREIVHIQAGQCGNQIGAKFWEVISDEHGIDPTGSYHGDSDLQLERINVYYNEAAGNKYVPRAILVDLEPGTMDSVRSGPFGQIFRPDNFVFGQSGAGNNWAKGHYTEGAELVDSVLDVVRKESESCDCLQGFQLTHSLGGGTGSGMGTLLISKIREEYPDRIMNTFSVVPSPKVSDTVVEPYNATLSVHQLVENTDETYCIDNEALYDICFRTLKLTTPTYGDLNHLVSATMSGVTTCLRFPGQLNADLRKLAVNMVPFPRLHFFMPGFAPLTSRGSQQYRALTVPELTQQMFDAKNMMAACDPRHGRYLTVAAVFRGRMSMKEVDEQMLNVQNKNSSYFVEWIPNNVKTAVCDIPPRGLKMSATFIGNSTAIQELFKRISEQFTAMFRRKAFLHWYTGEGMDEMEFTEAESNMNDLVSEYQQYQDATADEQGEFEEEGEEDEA

This assay addresses T1, Recombinant human KIF18A (1-467 His-tagged) (Homo sapiens, UniProt Q8NI77).
T1 construct: Recombinant human KIF18A (1-467 His-tagged) protein; His
The experiment in a line: KIF18A Enzyme Assay: microtubule-stimulated ATPase activity (ADP-Glo). The settings on record: 30 nM KIF18A, 30 μg/mL pig microtubules, ATP 75 μM (Km), ADP-Glo luminescence. The assay is classed as biochemical. Summed up:
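Measures microtubule-stimulated ATPase activity as ADP formed, detected by luminescence. Compounds were tested as 2-fold serial dilutions over 22 points. IC50 values came from four-parameter logistic fits.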
Take `C[C@@H]1CN(c2cccc(NC(=O)c3ccc(NS(=O)(=O)C4CCC4)cc3N3CCC4(CC3)CC4)n2)CCO1` [Example 7-9, (R)-4-(Cyclobutanesulfonamido)-N-(6-(2-methylmorpholino)pyridin-2-yl)-2-(6-azaspiro[2.5]octan-6-yl)benzamide]: the half-inhibitory concentration (IC50) is 0.062 µM.

For `C[C@@H]1CN(c2cccc(NC(=O)c3ccc(NS(=O)(=O)C4COC4)cc3N3CCC4(CC3)CC4)n2)CCO1` [Example 7-10, (R)-N-(6-(2-Methylmorpholino)pyridin-2-yl)-4-(oxetane-3-sulfonamido)-2-(6-azaspiro[2.5]octan-6-yl)benzamide], the IC50 was 0.063 µM.

On to `Cc1cc(NC(=O)c2ccc(NS(=O)(=O)C3COC3)cc2N2CCC3(CC2)CC3)nc(N2CCC(F)(F)CC2)c1` [Example 7-11, N-(6-(4,4-Difluoropiperidin-1-yl)-4-methylpyridin-2-yl)-4-(oxetane-3-sulfonamido)-2-(6-azaspiro[2.5]octan-6-yl)benzamide], for which the IC50 was determined as 0.081 µM.

Consider `C[C@@H]1CN(c2cccc(NC(=O)c3ccc(NS(=O)(=O)CCO)cc3N3CCC4(CC3)CC4)n2)CCO1` [Example 7-12, (R)-4-((2-Hydroxyethyl)sulfonamido)-N-(6-(2-methylmorpholino)pyridin-2-yl)-2-(6-azaspiro[2.5]octan-6-yl)benzamide], for which the concentration for half-maximal inhibition (IC50) came to 0.03 µM.

As to `C[C@H]1CN(c2cccc(NC(=O)c3ccc(NS(=O)(=O)CCO)cc3N3CCC4(CC3)CC4)n2)CCO1` [Example 7-13, (S)-4-((2-Hydroxyethyl)sulfonamido)-N-(6-(2-methylmorpholino)pyridin-2-yl)-2-(6-azaspiro[2.5]octan-6-yl)benzamide], the concentration for half-maximal inhibition (IC50) was 0.046 µM.

Consider `C[C@@H]1CN(c2cccc(NC(=O)c3ccc(NS(=O)(=O)CCC(F)(F)F)cc3N3CCC4(CC3)CC4)n2)CCO1` [Example 7-14, (R)-N-(6-(2-Methylmorpholino)pyridin-2-yl)-2-(6-azaspiro[2.5]octan-6-yl)-4-((3,3,3-trifluoropropyl)sulfonamido)benzamide], for which the IC50 was found to be 0.343 µM.

Consider `C[C@@H]1CN(c2cccc(NC(=O)c3ccc(NS(=O)(=O)C4(F)CC4)cc3N3CCC4(CC3)CC4)n2)CCO1` [Example 7-15, (R)-4-((1-Fluorocyclopropane)-1-sulfonamido)-N-(6-(2-methylmorpholino)pyridin-2-yl)-2-(6-azaspiro[2.5]octan-6-yl)benzamide], for which the half-inhibitory concentration (IC50) was determined as 0.09 µM.

As to `C[C@@H]1CN(c2cccc(NC(=O)c3ccc(NS(=O)(=O)C(C)(C)C)cc3N3CCC4(CC3)CC4)n2)CCO1` [Example 7-16, (R)-4-((1,1-Dimethylethyl)sulfonamido)-N-(6-(2-methylmorpholino)pyridin-2-yl)-2-(6-azaspiro[2.5]octan-6-yl)benzamide], the IC50 was found to be 0.067 µM.

On to `Cc1cc(NC(=O)c2ccc(NS(=O)(=O)CCO)cc2N2CCC3(CC2)CC3)nc(N2CCOCC2)c1` [Example 7-17, 4-((2-Hydroxyethyl)sulfonamido)-N-(4-methyl-6-morpholinopyridin-2-yl)-2-(6-azaspiro[2.5]octan-6-yl)benzamide], for which the IC50 was 0.017 µM.

With `Cc1cc(NC(=O)c2ccc(NS(=O)(=O)CCO)cc2N2CCC3(CC2)CC3)nc(N2CCO[C@H](C)C2)c1` [Example 7-18, (R)-4-((2-Hydroxyethyl)sulfonamido)-N-(4-methyl-6-(2-methylmorpholino)pyridin-2-yl)-2-(6-azaspiro[2.5]octan-6-yl)benzamide], the concentration for half-maximal inhibition (IC50) was 0.074 µM.

For the compound `Cc1cc(NC(=O)c2ccc(NS(=O)(=O)CCO)cc2N2CCC3(CC2)CC3)nc(N2CCO[C@@H](C)C2)c1` [Example 7-19, (S)-4-((2-Hydroxyethyl)sulfonamido)-N-(4-methyl-6-(2-methylmorpholino)pyridin-2-yl)-2-(6-azaspiro[2.5]octan-6-yl)benzamide], the IC50 was determined as 0.049 µM.

As for `O=C(Nc1cccc(N2CCOCC2)n1)c1ccc(NS(=O)(=O)CCO)cc1N1CCC2(CC1)CC2` [Example 7-20, 4-((2-Hydroxyethyl)sulfonamido)-N-(6-morpholinopyridin-2-yl)-2-(6-azaspiro[2.5]octan-6-yl)benzamide], the IC50 stood at 0.036 µM.

As to `Cc1cc(NC(=O)c2ccc(NS(C)(=O)=O)cc2N2CCC3(CC2)CC3)nc(N2CCC(F)(F)CC2)c1` [Example 7-21, N-(6-(4,4-Difluoropiperidin-1-yl)-4-methylpyridin-2-yl)-4-(methylsulfonamido)-2-(6-azaspiro[2.5]octan-6-yl)benzamide], the IC50 was 0.049 µM.

With `Cc1cc(NC(=O)c2ccc(NS(=O)(=O)C(C)(C)C)cc2N2CCC3(CC2)CC3)nc(N2CCC(F)(F)CC2)c1` [Example 7-22, N-(6-(4,4-Difluoropiperidin-1-yl)-4-methylpyridin-2-yl)-4-((1,1-dimethylethyl)sulfonamido)-2-(6-azaspiro[2.5]octan-6-yl)benzamide], the IC50 is 0.103 µM.

In the case of `Cc1cc(NC(=O)c2ccc(NS(=O)(=O)C3CCC3)cc2N2CCC3(CC2)CC3)nc(N2CCC(F)(F)CC2)c1` [Example 7-23, 4-(Cyclobutanesulfonamido)-N-(6-(4,4-difluoropiperidin-1-yl)-4-methylpyridin-2-yl)-2-(6-azaspiro[2.5]octan-6-yl)benzamide], the IC50 came out at 0.11 µM.

In the case of `Cc1cc(NC(=O)c2ccc(NS(=O)(=O)CC3CC3)cc2N2CCC3(CC2)CC3)nc(N2CCC(F)(F)CC2)c1` [Example 7-24, 4-((Cyclopropylmethyl)sulfonamido)-N-(6-(4,4-difluoropiperidin-1-yl)-4-methylpyridin-2-yl)-2-(6-azaspiro[2.5]octan-6-yl)benzamide], the IC50 was 0.186 µM.

In the case of `Cc1cc(NC(=O)c2ccc(NS(=O)(=O)C3CC3)cc2N2CCC3(CC2)CC3)nc(N2CCC(F)(F)CC2)c1` [Example 7-25, 4-(Cyclopropanesulfonamido)-N-(6-(4,4-difluoropiperidin-1-yl)-4-methylpyridin-2-yl)-2-(6-azaspiro[2.5]octan-6-yl)benzamide], the IC50 was determined as 0.039 µM.

As to `O=C(Nc1cccc(N2CCC(F)(F)CC2)n1)c1ccc(NS(=O)(=O)CCO)cc1N1CCC2(CC1)CC2` [Example 7-26, N-(6-(4,4-Difluoropiperidin-1-yl)pyridin-2-yl)-4-((2-hydroxyethyl)sulfonamido)-2-(6-azaspiro[2.5]octan-6-yl)benzamide], the IC50 stood at 0.023 µM.

In the case of `Cc1cc(NC(=O)c2ccc(NS(C)(=O)=O)cc2N2CCC3(CC2)CC3)nc(N2CC(F)(F)C2)c1` [Example 7-27, N-(6-(3,3-Difluoroazetidin-1-yl)-4-methylpyridin-2-yl)-4-(methylsulfonamido)-2-(6-azaspiro[2.5]octan-6-yl)benzamide], the 50% inhibitory concentration (IC50) was 0.014 µM.

For `Cc1cc(NC(=O)c2ccc(NS(=O)(=O)C(C)C)cc2N2CCC3(CC2)CC3)nc(N2CC(F)(F)C2)c1` [Example 7-28, N-(6-(3,3-Difluoroazetidin-1-yl)-4-methylpyridin-2-yl)-4-((1-methylethyl)sulfonamido)-2-(6-azaspiro[2.5]octan-6-yl)benzamide], the concentration for half-maximal inhibition (IC50) amounted to 0.068 µM.

On to `Cc1cc(NC(=O)c2ccc(NS(=O)(=O)C(C)(C)C)cc2N2CCC3(CC2)CC3)nc(N2CC(F)(F)C2)c1` [Example 7-29, N-(6-(3,3-Difluoroazetidin-1-yl)-4-methylpyridin-2-yl)-4-((1,1-dimethylethyl)sulfonamido)-2-(6-azaspiro[2.5]octan-6-yl)benzamide], for which the IC50 was 0.134 µM.
